Test results as given in the supplement of paper PMC11451515.

Tested on: P12-Ichikawa
Test: cell viability relative to DMSO control; higher = less cytotoxic
Settings: 48 h
Method in brief: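 Viability, reported as a per-plate percentage of DMSO wells with cell-free wells as background, came from CellTiter-Glo One luminescence. Reading took place after 48 h at 37°C. Before that, NOMO1 or SEM (500 cells/well) or P12-Ichikawa (1000 cells/well) leukemia cells, adapted for at least four passages in each medium, were seeded in 1536-well plates (5 μl) and pin-dosed with library compounds in DMSO, 47 μM to 0.79 nM over 11 threefold points.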

[1] = HPLM + 10% dialyzed FBS, 0.000781 µM
[2] = HPLM + 10% dialyzed FBS, 0.00234 µM
[3] = HPLM + 10% dialyzed FBS, 0.00702 µM
[4] = HPLM + 10% dialyzed FBS, 0.0211 µM
[5] = HPLM + 10% dialyzed FBS, 0.0632 µM
[6] = HPLM + 10% dialyzed FBS, 0.19 µM
[7] = HPLM + 10% dialyzed FBS, 0.569 µM
[8] = HPLM + 10% dialyzed FBS, 1.71 µM
[9] = HPLM + 10% dialyzed FBS, 5.12 µM
[10] = HPLM + 10% dialyzed FBS, 15.4 µM
[11] = HPLM + 10% dialyzed FBS, 46.1 µM
[12] = RPMI 5 mM glucose + 10% FBS, 0.000781 µM
[13] = RPMI 5 mM glucose + 10% FBS, 0.00234 µM
[14] = RPMI 5 mM glucose + 10% FBS, 0.00702 µM
[15] = RPMI 5 mM glucose + 10% FBS, 0.0211 µM
[16] = RPMI 5 mM glucose + 10% FBS, 0.0632 µM
[17] = RPMI 5 mM glucose + 10% FBS, 0.19 µM
[18] = RPMI 5 mM glucose + 10% FBS, 0.569 µM
[19] = RPMI 5 mM glucose + 10% FBS, 1.71 µM
[20] = RPMI 5 mM glucose + 10% FBS, 5.12 µM
[21] = RPMI 5 mM glucose + 10% FBS, 15.4 µM
[22] = RPMI 5 mM glucose + 10% FBS, 46.1 µM
[23] = RPMI 5 mM glucose + 10% dialyzed FBS, 0.000781 µM
[24] = RPMI 5 mM glucose + 10% dialyzed FBS, 0.00234 µM
[25] = RPMI 5 mM glucose + 10% dialyzed FBS, 0.00702 µM
[26] = RPMI 5 mM glucose + 10% dialyzed FBS, 0.0211 µM
[27] = RPMI 5 mM glucose + 10% dialyzed FBS, 0.0632 µM
[28] = RPMI 5 mM glucose + 10% dialyzed FBS, 0.19 µM
[29] = RPMI 5 mM glucose + 10% dialyzed FBS, 0.569 µM
[30] = RPMI 5 mM glucose + 10% dialyzed FBS, 1.71 µM
[31] = RPMI 5 mM glucose + 10% dialyzed FBS, 5.12 µM
[32] = RPMI 5 mM glucose + 10% dialyzed FBS, 46.1 µM
[33] = RPMI 5 mM glucose + 10% dialyzed FBS, 15.4 µM

Row | Compound | cell viability [1] | cell viability [2] | cell viability [3] | cell viability [4] | cell viability [5] | cell viability [6] | cell viability [7] | cell viability [8] | cell viability [9] | cell viability [10] | cell viability [11] | cell viability [12] | cell viability [13] | cell viability [14] | cell viability [15] | cell viability [16] | cell viability [17] | cell viability [18] | cell viability [19] | cell viability [20] | cell viability [21] | cell viability [22] | cell viability [23] | cell viability [24] | cell viability [25] | cell viability [26] | cell viability [27] | cell viability [28] | cell viability [29] | cell viability [30] | cell viability [31] | cell viability [32] | cell viability [33]
1 | CC[P](CC)(CC)=[Au][S][C@@H]1O[C@H](COC(C)=O)[C@@H](OC(C)=O)[C@H](OC(C)=O)[C@H]1OC(C)=O | 122% | 108% | 116% | 109% | 115% | 105% | 110% | 77.2% | 23% | 2.24% | 1.8% | 104% | 119% | 112% | 123% | 115% | 103% | 109% | 9.37% | 2.79% | 2.08% | 1.61% | 117% | 111% | 117% | 117% | 114% | 105% | 96.3% | 3.62% | 2.8% | 1.1% | 
2 | Cc1nc(N)sc1-c1ccnc(Nc2ccc(N3CCOCC3)cc2)n1 | 97.4% | 100% | 108% | 109% | 112% | 108% | 111% | 104% | 19.4% | 25% | 43.8% | 92.4% | 107% | 105% | 107% | 114% | 113% | 109% | 116% | 29.3% | 24.6% | 37.6% | 97.6% | 111% | 112% | 109% | 112% | 114% | 112% | 110% | 35.4% | 38.5% | 42%
3 | O=C(O)CCCc1ccc(N(CCCl)CCCl)cc1 | 117% | 116% | 118% | 122% | 125% | 122% | 125% | 126% | 123% | 123% | 20.4% |  |  |  |  |  |  |  |  |  |  |  |  |  |  |  |  |  |  |  |  |  | 
4 | NC(=O)[C@@H](CCC(F)(F)F)N(Cc1ccc(-c2ncon2)cc1F)[S+](=O)([O-])c1ccc(Cl)cc1 | 105% | 98.7% | 98.7% | 103% | 92.4% | 96.2% | 96.1% | 89.4% | 87.1% | 80% | 5.81% | 92.4% | 95% | 84.6% | 101% | 100% | 88.8% | 86.3% | 90.3% | 81.6% | 80.9% | 58% | 94.6% | 88.2% | 96.5% | 92.3% | 92.8% | 87.3% | 81.7% | 84.8% | 83.8% | 6.79% | 84.2%
5 | O=C(Nc1ccncc1)C(=O)c1cn(Cc2ccc(Cl)cc2)c2ccccc12 | 103% | 101% | 111% | 96.6% | 70.5% | 35% | 18.4% | 21.8% | 40.1% | 35.2% | 46.5% | 104% | 98.6% | 107% | 96.5% | 62.8% | 34.8% | 16.5% | 24.3% | 34.1% | 39.2% | 44.1% | 90.9% | 94.2% | 97.2% | 98.2% | 79.1% | 46.5% | 20.8% | 23.1% | 34.6% | 46.6% | 36.2%
6 | CC/C(=C(\c1ccccc1)c1ccc(OCCN(C)C)cc1)c1ccccc1 | 102% | 106% | 102% | 104% | 95.8% | 109% | 104% | 109% | 113% | 104% | 86.3% | 99.9% | 102% | 96.2% | 118% | 89.7% | 102% | 104% | 99.4% | 108% | 100% | 83.9% | 113% | 108% | 113% | 114% | 95.3% | 112% | 117% | 117% | 104% | 76.9% | 102%
7 | CC(=O)OCC(CCn1cnc2cnc(N)nc21)COC(C)=O | 92.3% | 103% | 109% | 106% | 113% | 102% | 108% | 106% | 112% | 110% | 111% | 89.8% | 95% | 103% | 103% | 108% | 97.3% | 102% | 102% | 101% | 106% | 103% | 92.5% | 101% | 98% | 87.9% | 105% | 104% | 97% | 106% | 102% | 97.3% | 103%
8 | NC(=O)Cc1cccc(C(=O)c2ccccc2)c1N | 101% | 103% | 103% | 92.6% | 110% | 111% | 103% | 106% | 97.7% | 98.6% | 95.6% | 100% | 96.6% | 102% | 86.9% | 106% | 94.3% | 97% | 96.2% | 99% | 85.3% | 82.9% | 102% | 101% | 101% | 85.2% | 96.1% | 98.3% | 101% | 99.3% | 101% | 85.2% | 87.7%
9 | c1cc(N[C@@H]2CCNC2)nc(-c2cnc3ccc(-c4cn[nH]c4)cn23)c1 | 116% | 121% | 122% | 123% | 131% | 130% | 135% | 136% | 132% | 120% | 104% |  |  |  |  |  |  |  |  |  |  |  |  |  |  |  |  |  |  |  |  |  | 
10 | O=C(N[C@H]1CN2CCC1CC2)c1ccc(Cl)cc1 | 99.2% | 107% | 104% | 110% | 110% | 116% | 114% | 114% | 116% | 109% | 99.2% | 110% | 106% | 114% | 103% | 108% | 111% | 114% | 110% | 106% | 101% | 99.9% | 98.2% | 100% | 104% | 114% | 118% | 116% | 113% | 114% | 102% | 92.4% | 104%
11 | O=C(/C=C/c1cccnc1)NCCCCC1CCN(C(=O)c2ccccc2)CC1 | 103% | 72.1% | 15.1% | 7.38% | 5.18% | 4.94% | 4.8% | 4.59% | 4.4% | 4% | 2.9% | 103% | 109% | 16.9% | 6.84% | 5.28% | 5.01% | 4.19% | 4.32% | 3.69% | 2.71% | 1.74% | 102% | 109% | 24.4% | 8.02% | 5.06% | 4.88% | 4.59% | 4.67% | 3.92% | 2.11% | 2.96%
12 | O=C1C(CCC(O)c2ccc(F)cc2)C(c2ccc(O)cc2)N1c1ccc(F)cc1 (stereo not drawn) | 108% | 112% | 114% | 116% | 119% | 124% | 117% | 117% | 117% | 120% | 106% | 114% | 117% | 123% | 118% | 122% | 121% | 126% | 121% | 127% | 121% | 117% | 101% | 106% | 105% | 117% | 118% | 111% | 120% | 116% | 124% | 106% | 114%
13 | NC(=O)c1c(OCc2c(F)cc(Br)cc2F)nsc1NC(=O)NCCCCN1CCCC1 | 107% | 112% | 103% | 104% | 99.9% | 102% | 98.8% | 100% | 89.5% | 45.2% | 43.8% |  |  |  |  |  |  |  |  |  |  |  | 123% | 126% | 116% | 111% | 108% | 111% | 111% | 96.7% | 99.6% | 68.1% | 46.9%
14 | CC(C)(OCc1nn(Cc2ccccc2)c2ccccc12)C(=O)O | 104% | 101% | 101% | 104% | 102% | 96% | 103% | 101% | 101% | 96.3% | 105% | 99.3% | 92.4% | 104% | 95.9% | 101% | 88.6% | 98.6% | 94.9% | 96.2% | 92.8% | 94.5% | 97.1% | 89.1% | 95.8% | 90.1% | 92.6% | 84.6% | 87.9% | 89.3% | 88.8% | 85% | 85.8%
15 | COc1ccccc1OCC(O)CN1CCN(CC(=O)Nc2c(C)cccc2C)CC1 (stereo not drawn) | 122% | 119% | 127% | 127% | 130% | 132% | 135% | 132% | 140% | 112% | 110% |  |  |  |  |  |  |  |  |  |  |  |  |  |  |  |  |  |  |  |  |  | 
16 | CCCCc1ccc(N[S+](=O)([O-])c2ccc(C)c(C(=O)N3CCN(c4cccc(C)c4C)CC3)c2)cc1 | 125% | 125% | 122% | 96.6% | 118% | 125% | 121% | 122% | 120% | 105% | 106% |  |  |  |  |  |  |  |  |  |  |  |  |  |  |  |  |  |  |  |  |  | 
